Experiments:
Assay in all cases: relative viability (nuclei count vs DMSO), 5 days (fraction); higher = more cells survive
[1] = compound: O=C(NCCCNc1nc(Nc2cccc(NC(=O)N3CCCC3)c2)ncc1I)c1cccs1 [BX 795] + CC(=O)Nc1cccc(-n2c(=O)n(C3CC3)c(=O)c3c(Nc4ccc(I)cc4F)n(C)c(=O)c(C)c32)c1 [Trametinib] (partner 0.02 µM)
Method in brief: (§1)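 The day after seeding in 1536-well plates, lung cancer cell lines were treated by pin tool with a single drug, or with a fixed anchor-drug dose together with five library-drug doses (not always all listed) in √10 steps. After 5 days, a combined fix-and-stain solution (final 0.05% Triton X-100, 1% formaldehyde, 1 ug/ml Hoechst) was added. Nuclei counted on 4× images gave relative viability as treated counts over vehicle counts, reported as the median of duplicate plates.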

[2] = compound: O=C(NCCCNc1nc(Nc2cccc(NC(=O)N3CCCC3)c2)ncc1I)c1cccs1 [BX 795] + Nc1nc2[nH]cc(CCc3ccc(C(=O)N[C@@H](CCC(=O)O)C(=O)O)cc3)c2c(=O)[nH]1 [Pemetrexed] (partner 0.2 µM)
Method in brief: as §1

[3] = compound: O=C(NCCCNc1nc(Nc2cccc(NC(=O)N3CCCC3)c2)ncc1I)c1cccs1 [BX 795] + CS(=O)(=O)CCNCc1ccc(-c2ccc3ncnc(Nc4ccc(OCc5cccc(F)c5)c(Cl)c4)c3c2)o1 [Lapatinib] (partner 2 µM)
Method in brief: as §1

[4] = compound: O=C(NCCCNc1nc(Nc2cccc(NC(=O)N3CCCC3)c2)ncc1I)c1cccs1 [BX 795] + CCNC(=O)c1noc(-c2cc(C(C)C)c(O)cc2O)c1-c1ccc(CN2CCOCC2)cc1 [Luminespib] (partner 0.01 µM)
Method in brief: as §1

[5] = compound: O=C(NCCCNc1nc(Nc2cccc(NC(=O)N3CCCC3)c2)ncc1I)c1cccs1 [BX 795] + Cc1nc(NC(=O)N2CCC[C@H]2C(N)=O)sc1-c1ccnc(C(C)(C)C(F)(F)F)c1 [Alpelisib] (partner 2 µM)
Method in brief: as §1

Row | Cell Line | relative viability ([1]; first compound 0.04 µM) | relative viability ([1]; first compound 0.1265 µM) | relative viability ([1]; first compound 0.4 µM) | relative viability ([1]; first compound 1.265 µM) | relative viability ([2]; first compound 0.04 µM) | relative viability ([2]; first compound 0.1265 µM) | relative viability ([2]; first compound 0.4 µM) | relative viability ([2]; first compound 1.265 µM) | relative viability ([3]; first compound 0.04 µM) | relative viability ([3]; first compound 0.1265 µM) | relative viability ([3]; first compound 0.4 µM) | relative viability ([3]; first compound 1.265 µM) | relative viability ([4]; first compound 0.04 µM) | relative viability ([4]; first compound 0.1265 µM) | relative viability ([4]; first compound 0.4 µM) | relative viability ([4]; first compound 1.265 µM) | relative viability ([5]; first compound 0.04 µM) | relative viability ([5]; first compound 0.1265 µM) | relative viability ([5]; first compound 0.4 µM) | relative viability ([5]; first compound 1.265 µM)
1 | NCI-H2170 | 0.948 | 0.945 | 0.93 | 0.951 | 0.271 | 0.286 | 0.243 | 0.249 | 0.26 | 0.28 | 0.262 | 0.289 | 0.83 | 0.541 | 0.39 | 0.544 | 0.859 | 0.92 | 0.864 | 0.751
2 | NCI-H2228 | 0.689 | 0.713 | 0.389 | 0.349 | 0.329 | 0.331 | 0.268 | 0.281 | 0.87 | 1.3 | 0.791 | 0.319 | 0.104 | 0.127 | 0.122 | 0.169 | 0.787 | 0.857 | 0.828 | 0.362
3 | NCI-H2347 | 0.282 | 0.239 | 0.29 | 0.275 | 0.424 | 0.375 | 0.434 | 0.434 | 0.945 | 0.903 | 1.16 | 0.914 | 0.534 | 0.563 | 0.751 | 0.607 | 1.19 | 1 | 1.11 | 0.892
4 | NCI-H2405 | 0.557 | 0.556 | 0.44 | 0.534 | 1.06 | 1.02 | 0.996 | 1.05 | 1.21 | 1 | 0.792 | 0.733 | 0.718 | 0.714 | 0.573 | 0.585 | 0.785 | 0.735 | 0.372 | 0.626
5 | NCI-H3122 | 0.216 | 0.312 | 0.248 | 0.26 | 0.172 | 0.207 | 0.141 | 0.182 | 1.04 | 1 | 1.09 | 1.05 | 0.0821 | 0.114 | 0.0793 | 0.0891 | 0.989 | 0.832 | 0.78 | 0.866
6 | PC-3 [JPC-3] | 0.723 |  | 0.631 | 0.729 | 1.04 |  | 1.16 | 1.02 | 0.451 | 0.449 | 0.447 | 0.453 | 0.67 | 0.628 | 0.774 | 0.698 | 1.02 | 1.03 | 1.15 | 1.02
7 | PC-14 | 0.754 | 0.751 | 0.815 | 0.325 | 0.0872 | 0.135 | 0.0536 | 0.115 | 0.284 | 0.35 | 0.271 | 0.203 | 0.138 | 0.113 | 0.138 | 0.117 | 0.955 | 0.939 | 0.918 | 0.813
8 | RERF-LC-KJ |  | 0.962 | 0.878 | 0.788 |  | 0.444 | 0.443 | 0.467 | 0.865 | 0.764 | 0.886 | 0.792 | 1.41 | 1.27 | 1.29 | 0.753 | 0.73 | 0.938 | 0.818 | 0.742
9 | SK-LU-1 | 0.473 | 0.674 | 0.396 | 0.469 | 0.895 | 0.988 | 0.646 | 0.823 | 0.883 | 1.1 | 0.801 | 0.469 | 0.224 | 0.217 |  | 0.173 | 1.03 | 0.946 | 0.672 | 0.479
10 | SK-MES-1 | 0.574 | 0.46 | 0.519 | 0.396 | 0.923 | 0.854 | 0.612 | 0.649 | 0.509 | 0.45 | 0.458 | 0.385 | 0.857 | 0.757 | 0.78 | 0.5 | 1.02 | 0.909 | 0.925 | 0.641
11 | SW 1573 | 0.725 | 0.642 | 0.753 | 0.232 | 0.748 | 0.81 | 0.836 | 0.516 | 1.13 | 1.18 | 1.26 | 0.781 | 0.214 | 0.488 | 0.514 | 0.172 | 0.766 | 0.734 | 1.01 | 0.674
12 | UMC-11 | 0.685 | 0.665 | 0.547 | 0.531 | 0.826 | 0.749 | 0.736 | 0.453 | 0.949 | 1.05 | 0.757 | 0.333 | 0.751 | 1.06 | 1.07 | 0.271 | 1.02 | 1.14 | 1.02 | 0.354
